# Paper PMC11191402, “High-Affinity NIR-Fluorescent Inhibitors for Tumor Imaging via Carbonic Anhydrase IX” (Bioconjugate Chemistry, 2024)
# Several values for one entry are separate records, joined by “and”; a condition that tells them apart may be missing. Identical values can stand only once.
# Columns and labels:
# Format in all cases: binding
# human recombinant CAIX = target: T1, human recombinant CAIX (Homo sapiens, UniProt Q16790); experiment: Fluorescence-based thermal shift assay (FTSA), CAIX; settings: 37 °C, pH 7.0
# T1 construct: Most isozymes were truncated, and only the catalytic domains of the proteins were produced; made in house; host or cells: mammalian cells
# Experimental: (§1) The binding affinities of the four NIR-fluorescent compounds to 12 catalytically active recombinant CA isozymes were determined by the fluorescence-based thermal shift assay (FTSA), and the dissociation constants (Kd’s) at physiological pH (pH 7.0) and 37 °C are listed in Table 1.
# (§2) All 12 catalytically active human CA isozymes were prepared recombinantly as previously described. Most isozymes were truncated, and only the catalytic domains of the proteins were produced.[9],[56] All isozymes were expressed in a bacterial expression system except that CAIX was expressed in mammalian cells. The proteins were chromatographically purified via immobilized metal affinity chromatography, ion-exchange, or p-aminomethylbenzenesulfonamide-sepharose affinity chromatography. Protein purity was confirmed by SDS-PAGE, and MW was confirmed by mass spectrometry with 1 Da precision, as predicted from theoretical protein sequence.
# (§3) The fluorescence-based thermal shift assay (FTSA) was used to determine the binding affinity of compounds for all catalytically active CA isozymes. The assay is based on the thermal stabilization of proteins by bound ligands and distinguishes itself in its ability to determine extremely high affinity (picomolar Kd) of compound binding to CAIX. The experiments were performed with a QIAGEN Rotor-Gene Q instrument using either the blue channel (365 ± 20 nm excitation and 460 ± 15 nm emission detection) or the green channel (470 ± 10 nm excitation and 510 ± 5 nm detection). The protein solution, in the absence and presence of various compound concentrations ranging from 3 to 200 μM (2× dilutions), was heated from 25 to 99 °C (heating rate, 1 °C/min). The CA isozyme melting temperature Tm was determined by following the fluorescence of 8-anilino-1-naphthalenesulfonate (ANS) or Glomelt dye. The samples consisted of 5 μM protein (or 10 μM CAIV), different concentrations of the tested compound, and 50 μM ANS or 200× diluted Glomelt in 50 mM sodium phosphate buffer (at pH 7.0) containing 100 mM sodium chloride and 2–4% (v/v) dimethyl sulfoxide. To obtain the dissociation constant (at 37 °C), data analysis was performed, and the curves were fit using the Thermott Web server.[57]
# [1] = target: T2, cell-expressed CAIX (HeLa cells grown under hypoxia) (Homo sapiens, UniProt Q16790); experiment: Competition assay with fluorescein-labeled GZ19-32 in live hypoxia-grown HeLa cells; settings: 10 nM GZ19-32, Pt 2 nM CAIX
# T2 construct: The cells were grown under hypoxia and not transfected; endogenous in cells; host or cells: HeLa cells, 3 days under hypoxia, not transfected
# Experimental: Hypoxia-grown HeLa cell culture expressed approximately 2 nM CAIX, which was quantified by fluorescein-labeled GZ19-32 added at a constant concentration of 10 nM throughout the assay. The four NIR-fluorescent compounds were dosed and competed with the GZ19-32 compound in a dose-dependent manner. At high concentrations, all four compounds fully outcompeted the fluorescein-bearing compound yielding nice competition curves (Figure 2B). Each curve was fit using the total protein CAIX (Pt) value of 2 nM, and the Kd of GZ19-32 was 200 pM. The dissociation constants for each NIR-fluorescent compound were 4 nM for GZ21-19, 6 nM for GZ22-1, 1.5 nM for GZ22-4, and 15 nM for AZ21-6. Thus, compound affinities were similar but not identical, despite having identical headgroups. […] The affinity of fluorescein-bearing GZ19-32 was the highest of all, around 200 pM.
# For the competition assay, live cells were seeded in 12-well plates and incubated for 3 days under hypoxia. 200 μL of serially diluted NIR-fluorescent compound (12 2-fold dilution steps) in the PBS medium, starting from 5120 nM (5120, 2560, 1280,..., 0 nM), was mixed with 200 μL of 20 nM GZ19-32 solution (PBS). After the removal of growth medium, 200 μL obtained solutions were applied to the cells grown in 12-well culture plates. Plates were incubated in the CO2 incubator at normoxia for 20 min. The solution was removed, and cells were washed 3 times for 1–2 min with 400 μL of PBS. Then, 180 μL of TrypLe express enzyme (Thermo Fisher) was added to each well and incubated in the normoxia chamber for 10 min. Then, 20 μL of Defined Trypsin Inhibitor solution (Thermo Fisher) was added and cells were resuspended by pipetting. 150 μL of the suspension from each well was transferred to Thermo Scientific Nunc MicroWell 96-Well Optical-Bottom Plates for fluorescence and absorbance measurements. 485 nm excitation and 520 nm emission wavelengths were used to measure fluorescence on a Synergy HTX, BioTek plate reader. 650 nm wavelength was used for absorbance measurements.
# human recombinant CAII = target: T3, human recombinant CAII (Homo sapiens, UniProt P00918); experiment: Fluorescence-based thermal shift assay (FTSA), CAII; settings: 37 °C, pH 7.0
# T3 construct: made in house; host or cells: bacterial expression system
# Experimental: as §1, §2, §3
# human recombinant CAVII = target: T4, human recombinant CAVII (Homo sapiens, UniProt P43166); experiment: Fluorescence-based thermal shift assay (FTSA), CAVII; settings: 37 °C, pH 7.0
# T4 construct: made in house; host or cells: bacterial expression system
# Experimental: as §1, §2
# as §3, with “To obtain the dissociation constant (at 37 °C), data analysis was performed, and the curves were fit using the Thermott Web server.[57]” left out
# T4 sequence (P43166 whole entry): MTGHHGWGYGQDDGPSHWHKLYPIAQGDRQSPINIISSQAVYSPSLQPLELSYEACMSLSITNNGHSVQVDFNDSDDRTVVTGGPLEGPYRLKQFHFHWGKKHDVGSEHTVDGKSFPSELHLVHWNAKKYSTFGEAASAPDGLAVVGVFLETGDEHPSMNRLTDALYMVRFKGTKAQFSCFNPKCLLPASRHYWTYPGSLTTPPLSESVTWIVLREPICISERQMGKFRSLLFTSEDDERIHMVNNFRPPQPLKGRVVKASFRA
Kd (human recombinant CAIX),Kd [1] [nM],Kd (human recombinant CAII) [nM],Kd (human recombinant CAVII) [nM],SMILES
0.2 nM,4,400,,"CC1(C)C(/C=C/C2=C(Oc3cccc(CC(=O)NCCCOCCOCCOCCCNC(=O)CCS(=O)(=O)c4c(F)c(F)c(S(N)(=O)=O)c(F)c4NC4CCCCCCC4)c3)C(=C/C=C3\N(CCCCS(=O)(=O)[O-])c4ccccc4C3(C)C)/CCC2)=[N+](CCCCS(=O)(=O)[O-])c2ccccc21.[Na+] [GZ21-19, Sodium 4-((Z)-2-((E)-2-(2-(3-(20-((2-(Cyclooctylamino)-3,5,6-trifluoro-4-sulfamoylphenyl)sulfonyl)-2,18-dioxo-7,10,13-trioxa-3,17-diazaicosyl)phenoxy)-3-((E)-2-(3,3-dimethyl-1-(4-sulfonatobutyl)-3H-indol-1-ium-2-yl)vinyl)cyclohex-2-en-1-ylidene)ethylidene)-3,3-dimethylindolin-1-yl)butane-1-sulfonate]"
0.17 nM and 0.2 nM,1.5,200,40,"CC1(C)C(/C=C/C2=C(Oc3ccc(CCC(=O)NCCOCCOCCOCCOCCOCCOCCOCCOCCOCCOCCOCCNC(=O)CCS(=O)(=O)c4c(F)c(F)c(S(N)(=O)=O)c(F)c4NC4CCCCCCC4)cc3)C(=C/C=C3\N(CCCCS(=O)(=O)[O-])c4ccccc4C3(C)C)/CCC2)=[N+](CCCCS(=O)(=O)[O-])c2ccccc21.[Na+] [GZ22-4, Sodium 4-((Z)-2-((E)-2-(2-(4-(43-((2-(Cyclooctylamino)-3,5,6-trifluoro-4-sulfamoylphenyl)sulfonyl)-3,41-dioxo-7,10,13,16,19,22,25,28,31,34,37-undecaoxa-4,40-diazatritetracontyl)phenoxy)-3-((E)-2-(3,3-dimethyl-1-(4-sulfonatobutyl)-3H-indol-1-ium-2-yl)vinyl)cyclohex-2-en-1-ylidene)ethylidene)-3,3-dimethylindolin-1-yl)butane-1-sulfonate]"
0.3 nM,15,2000,60,"CC1(C)C(/C=C/C2=C(NCCCOCCOCCOCCCNC(=O)CCC(=O)NCCS(=O)(=O)c3c(F)c(F)c(S(N)(=O)=O)c(F)c3NC3CCCCCCC3)C(=C/C=C3\N(CCCCS(=O)(=O)[O-])c4ccccc4C3(C)C)/CCC2)=[N+](CCCCS(=O)(=O)[O-])c2ccccc21.[Na+] [AZ21-6, Sodium 4-((Z)-2-((E)-2-(2-((1-((2-(Cyclooctylamino)-3,5,6-trifluoro-4-sulfamoylphenyl)sulfonyl)-4,7-dioxo-12,15,18-trioxa-3,8-diazahenicosan-21-yl)amino)-3-((E)-2-(3,3-dimethyl-1-(4-sulfonatobutyl)-3H-indol-1-ium-2-yl)vinyl)cyclohex-2-en-1-ylidene)ethylidene)-3,3-dimethylindolin-1-yl)butane-1-sulfonate]"
0.3 nM,6,20,30,"CC1(C)C(/C=C/C2=C(Oc3ccc(CCC(=O)NCCCOCCOCCOCCCNC(=O)CCS(=O)(=O)c4c(F)c(F)c(S(N)(=O)=O)c(F)c4NC4CCCCCCC4)cc3)C(=C/C=C3\N(CCCCS(=O)(=O)[O-])c4ccccc4C3(C)C)/CCC2)=[N+](CCCCS(=O)(=O)[O-])c2ccccc21.[Na+] [GZ22-1, Sodium 4-((Z)-2-((E)-2-(2-(4-(21-((2-(Cyclooctylamino)-3,5,6-trifluoro-4-sulfamoylphenyl)sulfonyl)-3,19-dioxo-8,11,14-trioxa-4,18-diazahenicosyl)phenoxy)-3-((E)-2-(3,3-dimethyl-1-(4-sulfonatobutyl)-3H-indol-1-ium-2-yl)vinyl)cyclohex-2-en-1-ylidene)ethylidene)-3,3-dimethylindolin-1-yl)butane-1-sulfonate]"
